Data: patent US7395112B2, “Method and apparatus for treating tumors using low strength electric fields” (priority 2002, dated 2008)

Experiments:
[1] = system: B16-F10.9 melanoma; experiment: LEFCT-EC in mice bearing subcutaneous B16-F10.9 melanoma; type: in vivo, C57BL/6 mice; settings: for Tumor size (mean ± standard error): 7 days after treatment
Protocol: Animals: C57BL/6 male mice were obtained from the breeding colony of Tel-Aviv University, Israel. Mice were used at 8-12 weeks of age. Animal care and experimentation was carried out in accordance with Tel-Aviv University guidelines.
Melanoma tumor cell line: The highly metastatic, poorly immunogenic B16-F10.9 (F10.9) subclone of the B16 melanoma cell line was used to generate melanoma tumors in mice (Eisenbach L. et al., 1984. Int J Cancer 34:567). Cells were maintained in DMEM supplemented with 100 U/ml penicillin, 100 μg/ml streptomycin, 4 mM glutamine, 1 mM sodium pyruvate, 1% non-essential amino acids and 10% heat-inactivated fetal calf serum (FCS); and were cultured at 37° C. in a humidified incubator in an atmosphere of 7% carbon dioxide and 93% air.
Tumor generation protocol: F10.9 tumors were induced in C57BL/6 mice by subcutaneous injection of 2×10^5 F10.9 cells. Mice were subjected to experimental treatments once tumors reached 5 mm in diameter (about 60-70 mm^3). Chemotherapeutic drugs: The following chemotherapeutic drugs used were: cis-platinum (II) diamminedichloride (cisplatin; #P-4394, Sigma, Israel), dissolved in PBS for injections; Taxol (Mead Johnson Oncology Products, A Bristol-Myers Squibb, USA), obtained as a sterile nonpyrogenic solution containing 6 mg/ml paclitaxel, 527 mg/ml of purified Cremophor EL (polyoxyethylated castor oil) and 5-FU (Abic, Israel).
Low-strength electric field enhanced cancer therapy protocol: Mice were subjected to a single treatment of LEFCT-EC, once tumors reached 5 mm in diameter (11-17 days following tumor cell inoculation). Volumes of up to 100 μl of chemotherapeutic agents were injected into tumor loci, and exposures to electric fields were carried out 3-4 min following intratumoral injection of chemotherapeutic agents. To expose tumors to electric fields, stainless steel electrode needles (Karlsbader insect pins No 0. BioQuip Products, USA) soldered at their brassy ends with thin isolated copper wires were used. Electrodes were inserted to a depth of about 7 mm percutaneously into and in the immediate vicinity of the tumor; one cathode needle in the center of the tumor and three peripheral anodes, at a distance of about 5 mm from the cathode. The needles were connected to an electric pulse generator (Grass S48 Stimulator, USA). The field strength applied was about 40 V/cm; the repetition frequency, 500 Hz; and the pulse width, 180 μs. All mice were anesthetized prior to LEF treatment.
Statistical analysis: Statistical analysis of survival times (Kaplan-Meir test), survival comparisons between groups (Mantel-Cox test) and tumor volume differences between groups (Kolmogorov-Smirnov test) were performed using StatSoft Statistica statistical software. The 10-15% mortality rate in the 5 days following LEF or LEF-chemotherapy was considered as treatment-caused, therefore such cases of mortality were excluded.
Tumor volume determination: performed as described above in Example 1 of the Examples section.

[2] = system: DA3 mammary adenocarcinoma; experiment: LEFCT-EC in mice bearing DA3 mammary adenocarcinoma; type: in vivo, BALB/c mice
Protocol: Animals: BALB/c female mice between the ages of 8 to 12 weeks obtained from the breeding colony of Tel-Aviv University, Israel were used in vivo tumor therapy experiments. Animal care and experimentation was carried out in accordance with Tel-Aviv University guidelines.
Tumor cell line: The highly metastatic, poorly immunogenic mammary adenocarcinoma cell line DA3 (Lopez D M. et al., 1981. J Natl Cancer Inst. 66:191) was used to generate mammary carcinoma tumors in mice. Cells were grown in DMEM supplemented with 100 U/ml penicillin, 100 μg/ml streptomycin, 4 mM glutamine, 1 mM sodium pyruvate, 1% non-essential amino acids and 10% heat-inactivated fetal calf serum (FCS), and cultured at 37° C. in a humidified incubator in an atmosphere of 7% carbon dioxide and 93% air. Tumors of this cell line grown to 1 cm in diameter produce metastatic cells, mainly in the lungs.
Reagents: Taxol (Mead Johnson Oncology Products, A Bristol-Myers Squibb, USA), obtained as a sterile nonpyrogenic solution containing 6 mg/ml paclitaxel, 527 mg/ml of purified Cremophor EL (polyoxyethylated castor oil) and 49.7% (v/v) dehydrated ethanol; and bleomycin (MegaPharm, Israel) were the anti cancer drugs used.
Low-strength electric field enhanced cancer chemotherapy protocol: Mice were subjected to a single treatment of LEF-chemotherapy, once primary tumors reached 5 mm in diameter (about 60-70 mm^3) (11-17 days following subcutaneous tumor cell inoculation). Up to 100 μl of chemotherapeutic agents was injected into the tumor loci. The exposure to electric field was carried out as described above in Example 2 of the Examples section.
Effect of LEFCT-EC using bleomycin or taxol on the survival of DA3 mammary adenocarcinoma bearing nice: BALB/c mice bearing DA3 mammary adenocarcinoma were treated by LEF-chemotherapy with intratumoral taxol (20 mg/kg) (FIG. 19) or bleomycin (30 U/kg) (FIG. 20) administration and their survival rate was compared with that of mice treated only with LEF or chemotherapy.

For bleomycin, the “Tumor size (mean ± standard error)” value ([1]; LEF-CT (drug + LEF), cisplatin 4 mg/kg, bleomycin 8 U/kg, 5-FU 150 mg/kg, taxol 20 mg/kg) was 573 ± 138 mm^3, the “mean survival time (MST)” value ([1]; LEF-chemotherapy: intratumoral drug + LEF about 40 V/cm 12 min, 120 days (cisplatin) or 180 days (taxol, bleomycin) after inoculation) was 48 days and the “cure rate / animals alive and free of visible tumor” value ([1]; LEF-chemotherapy, 180 days after tumor inoculation) was 8.2%. The “mean survival time (MST)” value ([1]; chemotherapy alone, intratumoral, no LEF) was 34.3 days, the “Tumor size (mean ± standard error)” value ([1]; intratumoral drug injection alone, same doses) was 2456 ± 220 mm^3 and the “LEFCT-EC treated mice that died two months and later after treatment with pulmonary metastatic foci, free of primary tumor” value ([1]; pooled statement for cisplatin, taxol or bleomycin) was “About 10%”. The MST ([1]; route comparison: bleomycin 8 U/kg intraperitoneally + LEF) was 34.6 days, the MST ([1]; route comparison: bleomycin 8 U/kg intratumorally + LEF) was 46.6 days and the animals alive ([1]; route comparison: bleomycin 8 U/kg intratumorally + LEF, 180 days after tumor inoculation) was 5%. For the same substance, the “survival time, Mean” value ([2]; LEF-chemotherapy with the drug) was 85.3, the “survival time, Median” value ([2]; LEF-chemotherapy with the drug) was 64.5 and the cure rate ([2]; LEF-chemotherapy, intratumoral taxol 20 mg/kg or bleomycin 30 U/kg, 180 days after tumor inoculation) was 30%. For the same substance, the “survival time, Mean” value ([2]; drug alone, intratumoral) was 40.2 and the “survival time, Median” value ([2]; drug alone, intratumoral) was 37.5.
